# Measured values as given in ChEMBL document CHEMBL5528050, “Discovery of a Novel Series of Homo sapiens Caseinolytic Protease P Agonists for Colorectal Adenocarcinoma Treatment via ATF3-Dependent Integrated Stress Response” (J Med Chem, 2024).
# Calls of active or inactive are those of the source. The rule behind the calls is not given here.
# What was measured:
# [1] = target: ATP-dependent Clp protease proteolytic subunit (Escherichia coli (strain K12)) (UniProt P0A6G7); assay: Agonist activity at Escherichia coli ClpP using Suc-LY-AMC as substrate at 10 to 100 uM measured every 5 mins for 1 hr by fluorescence based analysis; details: dose 10-100 µM
# ATP-dependent Clp protease proteolytic subunit (Escherichia coli (strain K12)), sequence (P0A6G7 whole entry): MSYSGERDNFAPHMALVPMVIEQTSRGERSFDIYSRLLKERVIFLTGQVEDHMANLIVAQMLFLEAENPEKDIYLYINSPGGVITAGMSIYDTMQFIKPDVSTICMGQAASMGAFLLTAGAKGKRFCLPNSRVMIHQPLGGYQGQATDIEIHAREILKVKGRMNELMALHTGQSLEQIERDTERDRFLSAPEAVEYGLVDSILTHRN
# Staphylococcus aureus [2] = assay: Antibacterial activity against Staphylococcus aureus ATCC25923 assessed as reduction in bacterial growth; format: functional
# Staphylococcus aureus [3] = assay: Antibacterial activity against Staphylococcus aureus ATCC29213 assessed as reduction in bacterial growth; format: functional
# Staphylococcus aureus [4] = assay: Antibacterial activity against Staphylococcus aureus ATCC33591 assessed as reduction in bacterial growth; format: functional
# Escherichia coli = assay: Antibacterial activity against Escherichia coli ATCC25922 assessed as reduction in bacterial growth; format: functional
# [5] = Antiproliferative activity against HEK293 cells assessed as inhibition of cell growth measured after 72 hrs by CCK-8 method; format: toxicity, cell-based; details: human
# [6] = Antiproliferative activity against rat H9c2 cells assessed as inhibition of cell growth measured after 72 hrs by CCK-8 method; format: toxicity, cell-based
# [7] = Antiproliferative activity against human L02 cells assessed as inhibition of cell growth measured after 72 hrs by CCK-8 method; format: toxicity, cell-based
# HCT-116 [8] = assay: Induction of ROS generation in human HCT-116 cells assessed as increase in intracellular ROS level measured after 48 hrs DCFH-DA staining based analysis; format: functional, cell-based
# Cell membrane = assay: Induction of mitochondrial membrane potential loss in human HCT-116 cells assessed as increase in green fluorescence at high dose measured after 48 hrs by JC-1 staining based microscopy analysis; format: cell membranes
# HCT-116 [9] = assay: Antiproliferative activity against human HCT-116 cells assessed reduction in clone formation measured after 48 hrs by crystal violet staining based analysis; format: functional, cell-based
# HCT-116 [10] = assay: Induction of apoptosis in human HCT-116 cells measured after 48 hrs by annexin V-FITC/7-AAD based flow cytometry analysis; format: functional, cell-based
# HCT-116 [11] = assay: Induction of apoptosis in human HCT-116 cells assessed as downregulation of bcl-2 expression at 0.5 to 2 uM measured after 48 hrs by Western blot analysis; format: functional, cell-based; details: dose 0.5-2 µM
# HCT-116 [12] = assay: Induction of cell cycle arrest in human HCT-116 cells assessed as effect on number of cells at G1 phase at 0.5 to 2 uM measured after 48 hrs by PI staining based flow cytometry analysis; format: functional; details: dose 0.5-2 µM
# HCT-116 [13] = assay: Induction of cell cycle arrest in human HCT-116 cells assessed as increase in number of cells at G2 phase at 0.5 uM measured after 48 hrs by PI staining based flow cytometry analysis; format: functional
# [14] = Acute toxicity in BALB/c mouse assessed as effect on spleen at 50 mg/kg, iv administered as single dose measured upto 14 days by H and E staining based analysis; format: organism-based; details: in vivo, 336 h, time < 14 day
# [15] = Acute toxicity in BALB/c mouse assessed as effect on kidney at 50 mg/kg, iv administered as single dose measured upto 14 days by H and E staining based analysis; format: organism-based; details: in vivo, 336 h, time < 14 day
# HCT-116 [16] = assay: Antitumor activity against human HCT-116 cells xenografted in BALB/c nude mouse model assessed as reduction in tumor volume at 1.25 mg/kg,iv administered twice weekly and measured upto 21 days relative to control; format: functional; set-up: scale not given: the % may be the effect or the level left; details: time <= 21 day
# HCT-116 [17] = assay: Antitumor activity against human HCT-116 cells xenografted in BALB/c nude mouse model assessed as reduction in tumor weight at middle dose administered as iv twice weekly and measured upto 21 days; format: functional; details: time <= 21 day
# HCT-116 [18] = assay: Antitumor activity against human HCT-116 cells xenografted in BALB/c nude mouse model assessed as reduction in tumor weight at high dose administered as iv twice weekly and measured upto 21 days; format: functional; details: time <= 21 day
# HCT-116 [19] = assay: Antitumor activity against human HCT-116 cells xenografted in BALB/c nude mouse model assessed as reduction in SDHB expression at upto 5 mg/kg, iv administered twice weekly by Western blot analysis; format: functional, organism-based
# [20] = Toxicity in BALB/c nude mouse assessed as effect on heart at 1.25 to 5 mg/kg, iv administered twice weekly and measured after 21 days by H and E staining based analysis; format: organism-based; details: in vivo, 504 h, dose 1.25-5 mg/kg, time 21 day
# [21] = Toxicity in BALB/c nude mouse assessed as effect on liver at 1.25 to 5 mg/kg, iv administered twice weekly and measured after 21 days by H and E staining based analysis; format: organism-based; details: in vivo, 504 h, dose 1.25-5 mg/kg, time 21 day
# [22] = Toxicity in BALB/c nude mouse assessed as effect on spleen at 1.25 to 5 mg/kg, iv administered twice weekly and measured after 21 days by H and E staining based analysis; format: organism-based; details: in vivo, 504 h, dose 1.25-5 mg/kg, time 21 day
# [23] = Toxicity in BALB/c nude mouse assessed as effect on lung at 1.25 to 5 mg/kg, iv administered twice weekly and measured after 21 days by H and E staining based analysis; format: organism-based; details: in vivo, 504 h, dose 1.25-5 mg/kg, time 21 day
# [24] = Cmax in Sprague-Dawley rat at 10 mg/kg, iv by LC-MS/MS analysis; format: ADME, organism-based; details: in vivo
# [25] = Clearance in Sprague-Dawley rat at 10 mg/kg, iv by LC-MS/MS analysis; format: ADME, organism-based; details: in vivo
# [26] = AUC (0 to 12hrs) in Sprague-Dawley rat at 10 mg/kg, po by LC-MS/MS analysis; format: ADME, organism-based; details: in vivo
# [27] = Metabolic stability in rat liver microsomes assessed as half life at 1 uM measured upto 60 mins in presence of NADPH regenerating system by LC-MS/MS analysis; format: ADME, Microsome
# [28] = Metabolic stability in human liver microsomes assessed as intrinsic clearance at 1 uM measured upto 60 mins in presence of NADPH regenerating system by LC-MS/MS analysis; format: ADME, Microsome; details: read-out: CLH
# [29] = Metabolic stability in rat liver microsomes assessed as intrinsic clearance at 1 uM measured upto 60 mins in presence of NADPH regenerating system by LC-MS/MS analysis; format: ADME, Microsome; details: read-out: CLH
# HCT-116 [30] = assay: Upregulation of ATF3 expression in human HCT-116 cells measured after 48 hrs by Western blot analysis; format: functional, cell-based
# HCT-116 [31] = assay: Upregulation of DDIT3 expression in human HCT-116 cells measured after 48 hrs by Western blot analysis; format: functional, cell-based
# HCT-116 [32] = assay: Upregulation of DDIT3 mRNA expression in human HCT-116 cells by RT-PCR analysis; format: functional, cell-based
# HCT-116 [33] = assay: Upregulation of DDIT4 expression in human HCT-116 cells measured after 48 hrs by Western blot analysis; format: functional, cell-based
# HCT-116 [34] = assay: Upregulation of ID1 expression in human HCT-116 cells measured after 48 hrs by Western blot analysis; format: functional, cell-based
# HCT-116 [35] = assay: Upregulation of ASNS expression in human HCT-116 cells measured after 48 hrs by Western blot analysis; format: functional, cell-based
# HCT-116 [36] = assay: Upregulation of CHAC1 expression in human HCT-116 cells measured after 48 hrs by Western blot analysis; format: functional, cell-based
# HCT-116 [37] = assay: Upregulation of GCLC expression in human HCT-116 cells measured after 48 hrs by Western blot analysis; format: functional, cell-based
# HCT-116 [38] = assay: Effect on […] expression in ClpP knockdown human HCT-116 cells at 2 uM measured after 48 hrs by Western blot analysis; format: functional, cell-based
# DLD-1 = assay: cells; details: Homo sapiens, DLD-1, 72 h
# Description: Antiproliferative activity against human DLD-1 cells assessed as inhibition of cell growth measured after 72 hrs by CCK-8 method
smiles,measurement,setting,value
N#Cc1cccc(CN2CCC=C(C(=O)NCc3ccc(C(F)(F)F)cc3)C2)c1,Activity,[1],inactive
same,MIC,Staphylococcus aureus [2],> 128 µg/mL
same,MIC,Staphylococcus aureus [3],> 128 µg/mL
same,MIC,Staphylococcus aureus [4],> 128 µg/mL
same,MIC,Escherichia coli,> 128 µg/mL
same,IC50 at 72 h,[5],78.1 µM
same,IC50 at 72 h,[6],60.6 µM
same,IC50 at 72 h,[7],64.1 µM
same,Activity,HCT-116 [8],Active
same,Activity,Cell membrane,Active
same,Activity,HCT-116 [9],Dose-Dependent Effect
same,Activity,HCT-116 [10],Dose-Dependent Effect
same,Activity,HCT-116 [11],Active
same,Activity,HCT-116 [12],inactive
same,Activity,HCT-116 [13],20%
same,Activity,[14],Non-Toxic
same,Activity,[15],Non-Toxic
same,Activity,HCT-116 [16],55.1%
same,Activity,HCT-116 [17],250 mg
same,Activity,HCT-116 [18],300 mg
same,Activity,HCT-116 [19],Active
same,Activity,[20],Non-Toxic
same,Activity,[21],Non-Toxic
same,Activity,[22],Non-Toxic
same,Activity,[23],Non-Toxic
same,Cmax,[24],966 ng/mL
same,CL,[25],2.172 mL/min/kg
same,AUC(0-t),[26],777 ng·h/mL
same,half-life at 1 µM,[27],18 min
same,CLint scaled at 1 µM,[28],206 mL/min/kg
same,CLint scaled at 1 µM,[29],305 mL/min/kg
same,Activity,HCT-116 [30],Active
same,Activity,HCT-116 [31],Active
same,Activity,HCT-116 [32],Active
same,Activity,HCT-116 [33],Active
same,Activity,HCT-116 [34],Active
same,Activity,HCT-116 [35],Active
same,Activity,HCT-116 [36],Active
same,Activity,HCT-116 [37],Active
same,Activity,HCT-116 [38],inactive
same,IC50,DLD-1,3.1 µM
